pIC50: −log10 of the molar value.
Tests used:
[1] = tested on: Colo205 (colon carcinoma); test: Methylene blue growth inhibition assay (Assay 2), Colo205; assay type: cell-based; conditions: Homo sapiens, COLO 205, 72 h, colorectal cancer, B-Raf V599E, Ras wt, 3 days, read-out: IC50 cell growth, Colo205
B-Raf = B-Raf (Homo sapiens, UniProt P15056); test: Fluorescence anisotropy kinase binding assay (Assay 1)
Excerpt: The activity of compounds of formula (I) as B-Raf inhibitors may be determined by the following in vitro assay:
Fluorescence Anisoptrophy Kinase Binding Assay
The concentration of kinase enzyme should preferably be >1×Kf. The concentration of fluorescent ligand required will depend on the instrumentation used, and the fluorescent and physicochemical properties. The concentration used must be lower than the concentration of kinase enzyme, and preferably less than half the kinase enzyme concentration. A typical protocol is:
All compounds are serially diluted in DMSO, then by a one step dilution into buffer of comparison, 50 mM HEPES, […] pH7.5, 1 mM CHAPS, 10 mM MgCL2, for the assay.
B-Raf Enzyme concentration: 1 nM
Fluorescent ligand concentration: 0.5 nM
Test compound concentration: 0.5 nM-100 uM
Components incubated in 10 ul final volume in LJL HE 384 type B black microtitre plate until equilibrium reached (Over 3 h, up to 30 h)
Fluorescence anisotropy read in an LJL Acquest fluorescence reader.
Definitions: Ki=dissociation constant for inhibitor binding
• Kf=dissociation constant for fluorescent ligand binding
The fluorescent ligand is the following compound:
which is derived from 5-[2(4aminomethylphenyl)-5-pyridin-4-yl-1H-imidazolyl-4-yl]-2-chlorophenol and rhodamine green.

SKMEL2 (human melanoma) = test: Methylene blue growth inhibition assay (Assay 2), SKMEL2; assay type: cell-based; conditions: SK-MEL-2, 72 h, B-Raf wt, [Q61R]N-Ras, 3 days, read-out: IC50 cell growth, SKMEL2
[2] = tested on: Colo201 (human colon carcinoma); test: XTT 72 hr growth inhibition (Assay 3), Colo201; assay type: cell-based; conditions: COLO 201, colorectal cancer, B-Raf status ND, Ras ND, read-out: IC50 cell viability, Colo201
Method: XTT 72 Hr Growth Inhibition Protocol for Mammalian Cultured Cells (Assay 3)
Human diploid foreskin fibroblasts (HFF) or human colon carcinoma (Colo 201) cells were grown in Dulbecco's modified Eagle's medium (DMEM) (kvitrogen/Life Technologies) containing 10% fetal bovine serum (FBS) and the antibiotics penicillin (100 Units/ml) and streotomycin (100 microgramnis/ml) (Invitrogen/Life Technologies). Growth was at 37° C. in humidified 5% CO2 incubators in 75 cm^2 plastic flasks. Cells were harvested using 0.25% trypsin/1 mM ethylenediaminetetraacetic acid (EDTA), resuspended in growth medium, and counted using a hemocytometer. Flat-bottomed 96-well plates were seeded with 2×10^3 cells/well in a volume of 200 ul from trypsinized exponentially growing cultures. To “blank” wells, growth medium was added with no additions. Cells were incubated overnight to permit attachment.
Next day, medium from wells that contained cells was replaced with 180 microliters of fresh medium. Appropriate dilutions of test compounds were added to the wells from stock soloutions of compound dissolved in dimethyl sulfoxide (DMSO); final DMSO concentration in all wells was 0.2%. […] Absorbance at 450 nm was then determined using a 96-well UV plate reader (Molecular Devices). Under these conditions, absorbance of untreated control cells at […] was at least 1.0 optical density unit/ml. […]

[3] = tested on: HFF (normal human foreskin fibroblasts); test: Methylene blue growth inhibition assay (Assay 2), HFF; assay type: cell-based; conditions: Fibroblast, 72 h, B-Raf wt, Ras wt, 3 days, read-out: IC50 cell growth, HFF
SKMEL3 (human melanoma) = test: Methylene blue growth inhibition assay (Assay 2), SKMEL3; assay type: cell-based; conditions: SK-MEL3, 72 h, B-Raf V599E, Ras wt, 3 days, read-out: IC50 cell growth, SKMEL3
A375P (human melanoma) = test: Methylene blue growth inhibition assay (Assay 2), A375P; assay type: cell-based; conditions: 72 h, B-Raf V599E, Ras wt, 3 days, read-out: IC50 cell growth, A375P

B-Raf, sequence (P15056 whole entry): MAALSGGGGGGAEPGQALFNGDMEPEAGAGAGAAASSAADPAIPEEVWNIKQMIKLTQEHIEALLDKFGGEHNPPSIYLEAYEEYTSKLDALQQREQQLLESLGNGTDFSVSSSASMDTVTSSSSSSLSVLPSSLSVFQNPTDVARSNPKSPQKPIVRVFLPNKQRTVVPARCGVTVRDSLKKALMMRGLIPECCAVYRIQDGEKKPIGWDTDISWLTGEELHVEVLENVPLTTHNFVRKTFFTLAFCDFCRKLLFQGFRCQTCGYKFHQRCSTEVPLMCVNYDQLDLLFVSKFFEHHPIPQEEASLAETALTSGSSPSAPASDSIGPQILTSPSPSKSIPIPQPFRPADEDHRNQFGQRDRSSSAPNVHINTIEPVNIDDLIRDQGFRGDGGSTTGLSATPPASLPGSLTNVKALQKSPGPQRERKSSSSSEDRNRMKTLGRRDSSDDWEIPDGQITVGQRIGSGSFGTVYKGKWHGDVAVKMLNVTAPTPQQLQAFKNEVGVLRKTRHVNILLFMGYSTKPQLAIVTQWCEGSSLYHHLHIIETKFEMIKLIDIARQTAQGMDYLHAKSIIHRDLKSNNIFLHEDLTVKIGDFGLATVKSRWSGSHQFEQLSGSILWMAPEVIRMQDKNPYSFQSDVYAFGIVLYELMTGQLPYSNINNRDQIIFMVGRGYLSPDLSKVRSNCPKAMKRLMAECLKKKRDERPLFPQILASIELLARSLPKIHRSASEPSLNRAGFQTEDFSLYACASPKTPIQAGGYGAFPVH

pIC50 [1]: 5.03
Kd (B-Raf): 3 nM
pIC50 (SKMEL2 (human melanoma)): < 5.85
pIC50 [2]: 5.35
pIC50 (SKMEL3 (human melanoma)): 6.05
pIC50 (A375P (human melanoma)): 5.64
SMILES: CN(C)CCOc1ccc(-c2cc(-c3ccc(Cl)c(O)c3)c(-c3ccncc3)o2)cc1 [Example 3, 2-Chloro-5-{5-[4-(2-dimethylamino-ethoxy)-phenyl]-2-pyridin-4-yl-furan-3-yl}-phenol]
pIC50 [3]: < 4.52

From patent US7446106B2, “Pyridylfurans and pyrroles as Raf kinase inhibitors” (SmithKline Beecham plc, priority 2001, dated 2008)
